Measurements: PubChem BioAssay AID179 (DTP/NCI, 2004)
Values joined by “and” are separate entries in the source; they are usually repeats but may differ in a detail not shown here. Identical values can stand only once. Active and inactive are the calls of the source.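 Rule for the calls: active = compounds giving half or more protection of infected cells from virus-caused growth loss, again on retest; inactive = the rest.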 Where a SMILES comes first, the peptide text is derived from it. The star is where a group is joined. Boc = CC(C)(C)OC(=O)*; OBn = c1ccc(CO*)cc1

System: CEM cells HIV-1 protection, formazan growth assay
Experiment: NCI AIDS Antiviral Assay
Conditions: for IC50: measured here: growth of uninfected CEM cells
How it was run: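 Protection of CEM cells against HIV-1 was scored from cell growth (soluble formazan) across five concentrations, with parallel uninfected cells. Lack of protection may reflect toxicity.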

SMILES: CC1(C)CCCCCC(C)(CCCCCCCCCCCO)C1=O (centres undefined)
- EC50: > 200 µM
- IC50: 30.2 µM

SMILES: CSCC(COC(C)=O)(CSC)c1ccncc1
- EC50: > 871 µM
- IC50: 501 µM

SMILES: [N-]=[N+]=NC1=CC(=O)c2cccc3cccc1c23
- EC50: > 75.9 µM
- IC50: 6.92 µM

SMILES: OCC1(CO)CSSC1
- EC50: 132 µM
- IC50: 1510 µM

SMILES: CN1C(=O)C2C(C1=O)[C@H]1c3ccccc3C=CN1[C@@H]2C(=O)c1ccccc1 (some centres undefined)
- EC50: > 200 µM
- IC50: 148 µM

SMILES: CN=c1ssc(/N=C(\SC)N(C)C)[n+]1C
- outcome: inactive

SMILES: O=C(c1ccccc1SSc1ccccc1C(=O)N1CSC[C@@H]1CO)N1CSC[C@H]1CO
- EC50: > 200 µM
- IC50: 107 µM

SMILES: CCC(=O)N1NC(=O)C(CC)(CC)C1=O
- EC50: > 200 µM
- IC50: > 200 µM

SMILES: Cc1cccnc1NC(=S)Nc1ccccc1Cl
- EC50: > 200 µM
- IC50: 0.813 µM

SMILES: COc1ccc(/C=C2/C(=O)NC3SC=C(c4cccc([N+](=O)[O-])c4)N23)cc1 (centres undefined)
- EC50: > 200 µM
- IC50: 83.2 µM

SMILES: CS(=O)(=O)c1ccc(NNc2cc(=O)[nH]c(=O)[nH]2)cc1
- EC50: > 200 µM
- IC50: 70.8 µM

SMILES: O=C(O)C1CCN1Cc1ccc2ccccc2c1O (centres undefined)
- EC50: > 200 µM
- IC50: 195 µM

SMILES: C[C@@H](NC(=O)c1ccccc1SC(=O)NCCCCl)C(N)=O
- EC50: 3.39 µM
- IC50: 49 µM

SMILES: CN(C)C(N)=NC#N
- EC50: > 794 µM
- IC50: > 794 µM

SMILES: CN(C)c1ccc(NN=C2SC(=Nc3ccccc3)C(=Nc3ccccc3)S2)cc1
- EC50: > 200 µM
- IC50: 8.13 µM

SMILES: O=C(c1ccccc1)C1C(C(=O)c2ccccc2)N1Cc1ccccc1 (centres undefined)
- EC50: > 200 µM
- IC50: 60.3 µM and > 55 µM

SMILES: COc1ccc(C2CC(=O)c3ccccc3O2)cc1OC (centres undefined)
- EC50: > 200 µM
- IC50: 40.7 µM

SMILES: COc1c(O)cc2oc(-c3ccc(O)cc3)cc(=O)c2c1O
- EC50: > 148 µM
- IC50: 35.5 µM

SMILES: OCC12C=CC(C1)c1ccccc12 (centres undefined)
- EC50: > 251 µM
- IC50: > 251 µM

SMILES: C=CC1CC1(CO)COc1cc(Cl)nc(N)n1 (centres undefined)
- EC50: > 200 µM
- IC50: 141 µM

SMILES: CCOC(=O)N1CCC(=O)C[C@@H]1C/C=C/P1(=O)O[C@H](c2ccccc2)C(C)N1C(C)C (some centres undefined)
- outcome: inactive

SMILES: Cc1nn(C(=O)Cc2ccccc2)c2c1C(c1ccc([N+](=O)[O-])cc1)SC(N)=N2 (centres undefined)
- EC50: 77.6 µM
- IC50: 117 µM

SMILES: Cc1cc(C)c(C(=O)c2no[n+]([O-])c2C(=O)c2c(C)cc(C)c(Br)c2C)c(C)c1Br
- EC50: > 1.95 µM
- IC50: > 1.95 µM

SMILES: O=C(N/N=C(\c1nc2ccc(Cl)cc2[nH]c1=O)C(O)c1ccccc1Cl)c1ccncc1 (centres undefined)
- EC50: > 537 µM
- IC50: > 537 µM

SMILES: COc1ccc(NCC(=O)Nn2c(-c3ccccc3)nc3ccccc3c2=O)cc1
- EC50: > 200 µM
- IC50: 17.8 µM

SMILES: COC(=O)N1c2c(ccc3c2OCO3)C23C4CN5CCCC(CCC12C(=O)OC)(CC4=O)C53 (centres undefined)
- EC50: > 7.94 µM
- IC50: > 7.94 µM

SMILES: CC(C)Oc1c(N(Cc2ccccc2)c2ccccc2C2SCCCS2)c(=O)c1=O
- EC50: > 200 µM
- IC50: 1.17 µM

SMILES: CC(=O)/C(=C/n1c(=S)sc2ccccc21)C(=O)Nc1ccccc1C
- EC50: > 200 µM
- IC50: 170 µM

SMILES: CCCCSC1CCSc2c1ccc1ccccc21 (centres undefined)
- outcome: inactive

SMILES: COC(=O)c1ccccc1/C=C1\Cc2cc3c(cc2C1=O)CCC3
- EC50: > 200 µM
- IC50: 45.7 µM

SMILES: O=C(O)c1ccccc1C1c2ccccc2Oc2ccccc21
- EC50: > 200 µM
- IC50: 35.5 µM

SMILES: CCOP(=O)(OCC)/C(C#N)=C/c1cccc(Oc2ccccc2)c1
- EC50: > 52.5 µM
- IC50: 30.2 µM

SMILES: CCCC(=O)OCC1OC2OC(C)(C)OC2C2OC(C)(C)OC12 (centres undefined)
- outcome: inactive

SMILES: C=C1CC/C=C(/C(=O)O)CC[C@H]2[C@@H]1CC2(C)C
- EC50: > 200 µM
- IC50: 178 µM

SMILES: CC(C)CC(NC(=O)OC(C)(C)C)C(=O)NC(CCC(=O)OCc1ccccc1)C(N)=O (stereo not drawn) (Boc-Leu-Glu(OBn)-NH2; configuration not given here)
- EC50: > 200 µM
- IC50: 191 µM

SMILES: O=C(O)c1nc2ccccc2n2cccc12
- EC50: > 200 µM
- IC50: > 200 µM

SMILES: N[C@@H]1C[C@H](N)c2c(Cl)sc(Cl)c21
- EC50: > 200 µM
- IC50: 141 µM

SMILES: O=C1C2Nc3ccccc3SC2C(=O)N1c1ccc(Br)cc1 (centres undefined)
- EC50: > 19.1 µM
- IC50: > 19.1 µM

SMILES: Cn1[nH]c2[nH]c(=S)sc(=S)c2c1=O
- EC50: > 200 µM
- IC50: > 200 µM

SMILES: COC(=O)c1ccc[c]([Sb](=[O])([OH])[OH])c1
- EC50: > 200 µM
- IC50: 91.2 µM

SMILES: CC1=NN(C(=O)Cc2ccccc2)C(=O)/C1=C\c1ccc([N+](=O)[O-])cc1
- EC50: > 53.7 µM
- IC50: > 53.7 µM

SMILES: COC(=NC(C)C)NC(C)C
- EC50: > 200 µM
- IC50: > 200 µM

SMILES: CC1=C(C(=O)NC(C)(C)C)CC(C(=O)NC(C)(C)C)C(C)N1 (centres undefined)
- EC50: > 200 µM
- IC50: > 200 µM

SMILES: CCn1c(=O)c2c3cc(O)ccc3oc2c2ccc(O)cc21
- EC50: > 200 µM
- IC50: > 200 µM
